Results taken from ChEMBL document CHEMBL6109102, “Conjugation with the XJB peptide enhanced neuroprotective effect of honokiol via SIRT3 modulation” (Eur J Med Chem, 2025).
Calls of active or inactive are those of the source. No cut-off for these calls is given here.

Legend:
Danio rerio = experiment: Anti-alzheimer activity in scopolamine induced zebrafish alzheimer disease model assessed as increase in total swimming distance at 1.25 to 5 uM administered for 6 days post fertilization; type: functional, organism-based; conditions: dose 1.25-5 µM, time 6.0 day
PC-12 [1] = experiment: Inhibition of apoptosis in H2O2-induced rat PC12 cells assessed as late apoptotic cells at 1.25 uM incubated with compound for 24 hrs followed by H2O2 addition and measured after 24 hrs by Annexin V-FITC/PI staining based flow cytometry analysis (reference value: 2.64%); type: functional; parameters: scale not given: the % may be the effect or the level left
PC-12 [2] = experiment: Inhibition of apoptosis in H2O2-induced rat PC12 cells assessed as necrotic cells at 5 uM incubated with compound for 24 hrs followed by H2O2 addition and measured after 24 hrs by Annexin V-FITC/PI staining based flow cytometry analysis (reference value: 4.05%); type: functional; parameters: scale not given: the % may be the effect or the level left
PC-12 [3] = experiment: Inhibition of apoptosis in H2O2-induced rat PC12 cells assessed as viable cells at 2.5 uM incubated with compound for 24 hrs followed by H2O2 addition and measured after 24 hrs by Annexin V-FITC/PI staining based flow cytometry analysis (reference value: 91.4%); type: functional; conditions: read-out: Activity
PC-12 [4] = experiment: Neuroprotective activity against H2O2-induced cell injury in rat PC12 cells assessed as cell viability at 2 uM incubated for 24 hrs by MTT assay; type: functional, cell-based
PC-12 [5] = experiment: Inhibition of apoptosis in H2O2-induced rat PC12 cells assessed as necrotic cells at 2.5 uM incubated with compound for 24 hrs followed by H2O2 addition and measured after 24 hrs by Annexin V-FITC/PI staining based flow cytometry analysis (reference value: 4.05%); type: functional; parameters: scale not given: the % may be the effect or the level left
PC-12 [6] = experiment: Inhibition of apoptosis in H2O2-induced rat PC12 cells assessed as late apoptotic cells at 5 uM incubated with compound for 24 hrs followed by H2O2 addition and measured after 24 hrs by Annexin V-FITC/PI staining based flow cytometry analysis (reference value: 2.64%); type: functional; parameters: scale not given: the % may be the effect or the level left
PC-12 [7] = experiment: Inhibition of apoptosis in H2O2-induced rat PC12 cells assessed as viable cells at 5 uM incubated with compound for 24 hrs followed by H2O2 addition and measured after 24 hrs by Annexin V-FITC/PI staining based flow cytometry analysis (reference value: 91.4%); type: functional; conditions: read-out: Activity
PC-12 [8] = experiment: Inhibition of apoptosis in H2O2-induced rat PC12 cells assessed as necrotic cells at 1.25 uM incubated with compound for 24 hrs followed by H2O2 addition and measured after 24 hrs by Annexin V-FITC/PI staining based flow cytometry analysis (reference value: 4.05%); type: functional; parameters: scale not given: the % may be the effect or the level left
PC-12 [9] = experiment: Inhibition of apoptosis in H2O2-induced rat PC12 cells assessed as viable cells at 1.25 uM incubated with compound for 24 hrs followed by H2O2 addition and measured after 24 hrs by Annexin V-FITC/PI staining based flow cytometry analysis (reference value: 91.4%); type: functional; conditions: read-out: Activity
PC-12 [10] = experiment: Inhibition of apoptosis in H2O2-induced rat PC12 cells assessed as early apoptotic cells at 1.25 uM incubated with compound for 24 hrs followed by H2O2 addition and measured after 24 hrs by Annexin V-FITC/PI staining based flow cytometry analysis (reference value: 1.09%); type: functional; parameters: scale not given: the % may be the effect or the level left
PC-12 [11] = experiment: Cytoprotective activity against H2O2-induced cell injury in rat PC12 cells at 2.5 uM incubated with compound for 24 hrs followed by H2O2 addition and measured up to 96 hrs by Real-time cell analysis; type: functional, cell-based; conditions: time <= 120.0 hrs
PC-12 [12] = experiment: Inhibition of apoptosis in H2O2-induced rat PC12 cells assessed as early apoptotic cells at 2.5 uM incubated with compound for 24 hrs followed by H2O2 addition and measured after 24 hrs by Annexin V-FITC/PI staining based flow cytometry analysis (reference value: 1.09%); type: functional; parameters: scale not given: the % may be the effect or the level left
PC-12 [13] = experiment: Inhibition of apoptosis in H2O2-induced rat PC12 cells assessed as late apoptotic cells at 2.5 uM incubated with compound for 24 hrs followed by H2O2 addition and measured after 24 hrs by Annexin V-FITC/PI staining based flow cytometry analysis (reference value: 2.64%); type: functional; parameters: scale not given: the % may be the effect or the level left
PC-12 [14] = experiment: Inhibition of apoptosis in H2O2-induced rat PC12 cells assessed as early apoptotic cells at 5 uM incubated with compound for 24 hrs followed by H2O2 addition and measured after 24 hrs by Annexin V-FITC/PI staining based flow cytometry analysis (reference value: 1.09%); type: functional; parameters: scale not given: the % may be the effect or the level left
PC-12 [15] = experiment: Neuroprotective activity against H2O2-induced cell injury in rat PC12 cells assessed as cell viability incubated for 24 hrs by MTT assay; type: functional, cell-based; conditions: dose 0.37-30 µM
PC-12 [16] = experiment: Anti-apoptotic activity in H2O2-induced rat PC12 cells assessed as increase in PARP protein expression at 1.25 to 5 uM by Western blot analysis; type: functional, cell-based; conditions: dose 1.25-5 µM
PC-12 [17] = experiment: Cytotoxicity against rat PC12 cells assessed as inhibition of cell viability at 30 uM incubated for 24 hrs by MTT assay; type: functional, cell-based
PC-12 [18] = experiment: Cytoprotective activity against H2O2-induced cell injury in rat PC12 cells assessed as cell viability at 20 uM incubated for 24 hrs by MTT assay; type: functional, cell-based
PC-12 [19] = experiment: Neuroprotective activity in H2O2-induced rat PC12 cells assessed as reversal of mitochondrial membrane potential reduction by measuring red fluorescence fold change at 5 uM incubated with compound for 24 hrs followed by H2O2 addition and measured after 24 hrs by JC-1 based fluorescence microscopic analysis (reference value: 1.00); type: functional
[20] = Drug uptake in cytoplasm of rat PC12 cells at 8 uM incubated for 8.5 hrs by HPLC analysis; type: ADME, subcellular; conditions: pc12, 8.5 h
PC-12 [21] = experiment: Induction of autophagy in H2O2-induced rat PC12 cells assessed as downregulation of P62 expression by Western blot analysis; type: functional, cell-based; conditions: dose 1.25-5 µM
PC-12 [22] = experiment: Neuroprotective activity in H2O2-induced rat PC12 cells assessed as reversal of mitochondrial membrane potential reduction by measuring red fluorescence fold change at […] incubated with compound for 24 hrs followed by H2O2 addition and measured after 24 hrs by JC-1 based fluorescence microscopic analysis (reference value: 1.00); type: functional
PC-12 [23] = experiment: Neuroprotective activity in H2O2-induced rat PC12 cells assessed as reversal of mitochondrial membrane potential reduction by measuring red fluorescence at 5 uM incubated with compound for 24 hrs followed by H2O2 addition and measured after 24 hrs by JC-1 based fluorescence microscopic analysis (reference value: 21.62 a.u.); type: functional
PC-12 [24] = experiment: Neuroprotective activity in H2O2-induced rat PC12 cells assessed as reversal of mitochondrial membrane potential reduction by measuring red fluorescence at 2.5 uM incubated with compound for 24 hrs followed by H2O2 addition and measured after 24 hrs by JC-1 based fluorescence microscopic analysis (reference value: 21.62 a.u.); type: functional
PC-12 [25] = experiment: Neuroprotective activity in H2O2-induced rat PC12 cells assessed as reversal of mitochondrial membrane potential reduction by measuring red fluorescence fold change at 2.5 uM incubated with compound for 24 hrs followed by H2O2 addition and measured after 24 hrs by JC-1 based fluorescence microscopic analysis (reference value: 1.00); type: functional
PC-12 [26] = experiment: Neuroprotective activity in H2O2-induced rat PC12 cells assessed as reversal of mitochondrial membrane potential reduction by measuring green fluorescence at 1.5 uM incubated with compound for 24 hrs followed by H2O2 addition and measured after 24 hrs by JC-1 based fluorescence microscopic analysis (reference value: 4.90 a.u.); type: functional
PC-12 [27] = experiment: Neuroprotective activity in H2O2-induced rat PC12 cells assessed as reversal of mitochondrial membrane potential reduction by measuring red fluorescence at 1.25 uM incubated with compound for 24 hrs followed by H2O2 addition and measured after 24 hrs by JC-1 based fluorescence microscopic analysis (reference value: 21.62 a.u.); type: functional
PC-12 [28] = experiment: Neuroprotective activity in H2O2-induced rat PC12 cells assessed as reversal of mitochondrial membrane potential reduction by measuring green fluorescence fold change at 1.5 uM incubated with compound for 24 hrs followed by H2O2 addition and measured after 24 hrs by JC-1 based fluorescence microscopic analysis (reference value: 1.00); type: functional
PC-12 [29] = experiment: Neuroprotective activity in H2O2-induced rat PC12 cells assessed as reversal of mitochondrial membrane potential reduction by measuring green fluorescence at 2.5 uM incubated with compound for 24 hrs followed by H2O2 addition and measured after 24 hrs by JC-1 based fluorescence microscopic analysis (reference value: 4.90 a.u.); type: functional
PC-12 [30] = experiment: Cytoprotective activity against H2O2-induced cell injury in rat PC12 cells assessed as cell viability at 10 uM incubated for 24 hrs by MTT assay; type: functional, cell-based
PC-12 [31] = experiment: Neuroprotective activity in H2O2-induced rat PC12 cells assessed as reversal of mitochondrial membrane potential reduction by measuring green fluorescence fold change at 2.5 uM incubated with compound for 24 hrs followed by H2O2 addition and measured after 24 hrs by JC-1 based fluorescence microscopic analysis (reference value: 1.00); type: functional
PC-12 [32] = experiment: Induction of autophagy in H2O2-induced rat PC12 cells assessed as upregulation of LC3-II/I ratio by Western blot analysis; type: functional, cell-based; conditions: dose 1.25-5 µM
PC-12 [33] = experiment: Neuroprotective activity in H2O2-induced rat PC12 cells assessed as reversal of mitochondrial membrane potential reduction by measuring green fluorescence at 5 uM incubated with compound for 24 hrs followed by H2O2 addition and measured after 24 hrs by JC-1 based fluorescence microscopic analysis (reference value: 4.90 a.u.); type: functional
PC-12 [34] = experiment: Neuroprotective activity in H2O2-induced rat PC12 cells assessed as reversal of mitochondrial membrane potential reduction by measuring green fluorescence fold change at 5 uM incubated with compound for 24 hrs followed by H2O2 addition and measured after 24 hrs by JC-1 based fluorescence microscopic analysis (reference value: 1.00); type: functional
[35] = Drug uptake in mitochondria of rat PC12 cells at 8 uM incubated for 8.5 hrs by HPLC analysis; type: ADME; conditions: pc12, 8.5 h
SH-SY5Y = experiment: Cytotoxicity against human SH-SY5Y cells assessed as inhibition of cell viability at 100 uM incubated for 24 hrs by MTT assay; type: functional, cell-based
[36] = Drug uptake in rat PC12 cells at 8 uM incubated for 8.5 hrs by HPLC analysis; type: ADME, cell-based; conditions: pc-12, 8.5 h

Compound | Activity (Danio rerio) | Activity (PC-12 [1]) | Activity (PC-12 [2]) | viability at 2.5 µM (PC-12 [3]) | Activity (PC-12 [5]) | Activity (PC-12 [6]) | viability at 5 µM (PC-12 [7]) | Activity (PC-12 [8]) | viability at 1.25 µM (PC-12 [9]) | Activity (PC-12 [10]) | Activity (PC-12 [12]) | Activity (PC-12 [13]) | Activity (PC-12 [14]) | Activity (PC-12 [16]) | other results
C=CCc1ccc(OCCCNC(=O)[C@H](CCCNC(=O)OCc2ccccc2)NC(=O)[C@@H](NC(=O)[C@@H]2CCCN2C(=O)[C@@H](Cc2ccccc2)NC(=O)[C@H](CC(C)C)NC(=O)OC(C)(C)C)C(C)C)c(-c2ccc(O)c(CC=C)c2)c1 | Active | 4.86% | 1.58% | 83.9% | 1.66% | 2.69% | 86.8% | 1.4% | 76.6% | 17.2% | 11.6% | 2.87% | 8.97% | Active | Activity (PC-12 [4]): Active; Activity (PC-12 [11]): Active; Activity (PC-12 [15]): Dose-dependent-effect; Activity (PC-12 [17]): inactive
C=CCc1ccc(O)c(-c2ccc(O)c(CC=C)c2)c1 [HONOKIOL] | Active | 4.95% | 1.52% | 79.6% | 1.43% | 4.84% | 77.1% | 1.57% | 76.9% | 16.6% | 15.6% | 3.27% | 16.5% | Active | Activity (PC-12 [18]): inactive; fold change (FC) (PC-12 [19]): 0.63; Drug uptake [20]: Active; Activity (PC-12 [21]): inactive; fold change (FC) (PC-12 [22]): 0.09; Activity (PC-12 [23]): 13.31 a.u.; Activity (PC-12 [24]): 6.59 a.u.; fold change (FC) (PC-12 [25]): 0.32; Activity (PC-12 [26]): 6.32 a.u.; Activity (PC-12 [27]): 2.16 a.u.; fold change (FC) (PC-12 [28]): 2.55; Activity (PC-12 [29]): 4.08 a.u.; Activity (PC-12 [30]): Active; fold change (FC) (PC-12 [31]): 1.02; Activity (PC-12 [32]): inactive; Activity (PC-12 [33]): 3.97 a.u.; fold change (FC) (PC-12 [34]): 1.26; Drug uptake [35]: Active; Activity (SH-SY5Y): Active; Drug uptake [36]: Active
